According to patent US9522907B2, “Anticancer agent and process for the preparation thereof” (COUNCIL OF SCIENTIFIC & INDUSTRIAL RESEARCH, priority 2014, dated 2016):

Key:
Assay in all cases: cells
Format in all cases: cell-based
[1] = system: Breast cancer cell lines; conditions: Homo sapiens
Source text: (§1) The mean graph midpoint values of Log10 GI50 as well as Log10 LC50 for the compounds 2i, 5i and Hoechst 33258 (NSC-322921) is listed in Table 2.
(§2) Each cancer type represents the average of six to eight different cancer cell lines.

[2] = system: CNS cancer cell lines; conditions: Homo sapiens
Source text: as §1, §2

[3] = system: Colon cancer cell lines; conditions: Homo sapiens; Colon; average of cell lines of the cancer type; read-out: Log10 GI50 mean graph midpoint (MG_MID) (converted)
Source text: as §1, §2

[4] = system: Leukemia cancer cell lines; conditions: Homo sapiens; Leukemia; average of cell lines of the cancer type; read-out: Log10 GI50 mean graph midpoint (MG_MID) (converted)
Source text: as §1, §2

[5] = system: Melanoma cancer cell lines; conditions: Homo sapiens; Melanoma; average of cell lines of the cancer type; read-out: Log10 GI50 mean graph midpoint (MG_MID) (converted)
Source text: as §1, §2

[6] = system: Non-small-cell lung cancer cell lines; conditions: Homo sapiens; Non-small-cell lung; average of cell lines of the cancer type; read-out: Log10 GI50 mean graph midpoint (MG_MID) (converted)
Source text: as §1, §2

[7] = system: Ovarian cancer cell lines; conditions: Homo sapiens
Source text: as §1, §2

[8] = system: Prostate cancer cell lines; conditions: Homo sapiens
Source text: as §1, §2

[9] = system: Renal cancer cell lines; conditions: Homo sapiens
Source text: as §1, §2

[10] = read-out: Log10 LC50 mean graph midpoint (MG_MID) (converted)

CN1CCN(c2ccc3nc(-c4ccc5nc(-c6ccc(O)cc6)[nH]c5c4)[nH]c3c2)CC1 [Hoechst 33258, reference compound]
CC50 [1, 10]: 1.45 mM
GI50 ([1]; Breast, average of cell lines of the cancer type, read-out: Log10 GI50 mean graph midpoint (MG_MID) (converted)): 21.4 µM
CC50 [2, 10]: 1.32 mM
GI50 ([2]; CNS, average of cell lines of the cancer type, read-out: Log10 GI50 mean graph midpoint (MG_MID) (converted)): 132 µM
GI50 [3]: 79.4 µM
GI50 [4]: 18.6 µM
GI50 [5]: 25.1 µM
GI50 [6]: 115 µM
CC50 [7, 10]: 1.2 mM
GI50 ([7]; Ovarian, average of cell lines of the cancer type, read-out: Log10 GI50 mean graph midpoint (MG_MID) (converted)): 195 µM
CC50 [8, 10]: 1.41 mM
GI50 ([8]; Prostate, average of cell lines of the cancer type, read-out: Log10 GI50 mean graph midpoint (MG_MID) (converted)): 631 µM
CC50 [9, 10]: 1.26 mM
GI50 ([9]; Renal, average of cell lines of the cancer type, read-out: Log10 GI50 mean graph midpoint (MG_MID) (converted)): 166 µM
